Experimental data published in a melting point compilation (Tetko et al.; mined from patent text by program, amines drawn as free bases though some values may be those of a salt).

| SMILES | melting point |
| --- | --- |
| CN(c1cccc2cc(-c3nccs3)[nH]c12)S(=O)(=O)c1ccsc1CCl | 190 °C |
| Cc1nc(N(C)N)[nH]c(=O)c1CCO | 180 °C |
| COc1cc(Cc2cnc(NCCO)nc2N)cc(OC)c1OC | 146 °C |
| O=S1N=C(NCCCN(Cc2ccsc2)c2ccccn2)C(NCc2ccncc2)=N1 (configuration not stated) | 155 to 157 °C |
| C[C@H](COS(C)(=O)=O)N1C(=O)c2ccccc2C1=O | 75 to 77 °C |
| CC12CCC(C(=O)O)=CC1=CCC1C2CCC2(C)C(C(=O)c3ccc(O)cc3)CCC12 (configuration not stated) | 295 °C |
| COc1ccc2cccc(CCN3C(=O)c4ccccc4C3=O)c2c1 | 154 °C |
| COc1cc(C2NCCS2)ccc1O (configuration not stated) | 158 to 161 °C |
| COC(=O)c1ccc(NC(=O)NCc2cccc(OC(C)=O)c2)cc1Cl | 113 to 114 °C |
| CCC(CC)(CC(=O)Nc1cccc(SCc2ccc3cc(F)ccc3n2)c1)C(=O)O | 117 to 120 °C |
| CC=CC(=O)C1C(C)C(=O)CCC1(C)C (configuration not stated) | 76 to 77 °C |
| COc1nc2ccccc2nc1N(C)C(=O)N1CCN(c2cc(C)cc(C)c2)CC1 | 142 to 144 °C |
| Cc1cc(-n2c(=O)cc(C(F)(F)F)n(C)c2=O)c(F)cc1C#N | 186 °C |
| CC(C)C1=C(C#N)C(c2cccc(Cl)c2Cl)c2c[nH]nc2N1 (configuration not stated) | > 250 °C |
| O=C(Nc1ccccc1NS(=O)(=O)c1ccc(Cl)cc1)c1ccccc1 | 191 to 192 °C |
| C=C(C)OC1CCC(=O)N1S(=O)(=O)c1ccccc1 (configuration not stated) | 54 to 56 °C |
| CCn1c2ccccc2c2cc(Nc3nccc(-c4ccc(N5CCNCC5)nc4)n3)ccc21 | 131 to 137 °C |
| COC(=O)NC1CCc2sccc2C1 (configuration not stated) | 108 to 109 °C |
| Cc1ccc(-c2nn(-c3ccccc3C)c(N)c2C(N)=O)cc1 | 133 to 135 °C |
| CC(C)(C)SCC1(C(=O)O)Cc2ccccc2C1 | 158 to 163 °C |
| FC(F)(F)c1ccc(/C=C/c2cc(Cl)cc(Cl)c2)cc1 | 98 to 100 °C |
| CCC(=O)N1CCN(C(=O)Cl)CC1 | 45 °C |
| Cc1ccc(F)cc1C(=O)Nc1ccc(C(=O)N2Cc3cccn3-c3ncccc32)cn1 | 226 to 234 °C |
| N#Cc1ccccc1Nc1cc2c(cc1Nc1ccccc1)C(=O)NC2=O | 115 to 117 °C |

| SMILES | melting point |
| --- | --- |
| Cc1c(CN2CCC(c3c(Cl)cccc3Cl)CC2)[nH]c2ccccc12 | 139 to 141 °C |
| CN(C(=O)c1nnc2ccccc2c1O)c1ccccn1 | 237 to 239 °C |
| N#CC12CC(c3ccccc31)c1ccccc12 | 120 to 123 °C |
| CCCc1nc(-c2ncn3c2COC(=O)c2c(Cl)cccc2-3)no1 | 130 to 132 °C |
| COC1=C(OC)C(=O)C(CCC(=O)N[C@@H](Cc2ccc(O)cc2)C(=O)O)=C(C)C1=O | 170 °C |
| CC1(C)OC(=O)Nc2ccc(-c3cc(C(F)(F)F)cc(C(F)(F)F)c3)cc21 | 258 to 260 °C |
| CNC(=S)C1(c2cccnc2)CCCCC1=CCOc1ccccc1 (configuration not stated) | 121 to 122 °C |
| CC(=O)c1ccccc1-c1ccc(C(=O)N2Cc3ccc(C(=O)NCc4cccnc4)n3Cc3ccccc32)cc1 | 149 to 150 °C |
| CCOC(=O)C(C(=O)OCC)=C1NC(=O)N(Cc2ccccc2)C1=O | 149 to 151 °C |
| Cc1cc(C)cc(NC(=O)[C@@H](C)N)c1 | 134 to 136 °C |
| CN(C)c1ccnc(-c2ccncc2)n1 | 109 to 110 °C |
| Cc1cccc2c1NC(=O)C(CCCN1CCN(c3cccc(F)c3)CC1)S2 (configuration not stated) | 132 to 134 °C |
| CC(C)n1nc(-c2cc(NC(=O)c3ccccc3)cnc2-c2ccccc2)ccc1=O | 207 to 208 °C |
| O=C1c2ccccc2C(=O)N1C[C@H]1COc2cc(Cl)ccc2O1 | 126 to 127 °C |
| O=C(CC1CCOCC1)N[C@H]1CC[C@H](CCN2CCN(c3nccc4ccoc34)CC2)CC1 | 213 °C |
| COc1ccc([C@@H]2OC(=O)[C@H](Cc3ccccc3)N2C(=O)OCc2ccccc2)cc1 | 85 °C |
| c1ccc(-c2ccc3nncn3n2)cc1 | 138 to 139 °C |
| COC(=O)Cc1c(-c2ccccc2)nn(-c2ccccc2)c1-c1ccccc1 | 80.5 to 81.5 °C |
| CCOC(=O)Cc1ccc(CCNC(=O)c2ccc(Cl)cc2)cc1 | 118 to 119 °C |
| Cc1oc(-c2ccco2)nc1COc1ccc(COc2nn(C)cc2CC(=O)O)cn1 | 155 to 156 °C |
| CCCCCC1CCC(C2CCC(CC(=O)CC)CC2)CC1 (configuration not stated) | 107 °C |
| COc1cc(OCC(=O)O)c(C)cc1SCc1ccc(-c2ccccc2)cc1 | 60 to 62 °C |
| COc1ccc2[nH]c(=O)cc(CCCl)c2c1 | 231 to 232 °C |
| Cc1cccc(Nc2cc(Cl)nc(SCC(=O)NN3CCCCC3)n2)c1C | 113 to 115 °C |

| SMILES | melting point |
| --- | --- |
| O=C1CCC(N2Cc3c(CNC(=O)c4ccco4)cccc3C2=O)C(=O)N1 (configuration not stated) | 219 to 221 °C |
| Cc1nc(-c2ccccc2)cc(-c2cccc([N+](=O)[O-])c2)c1C(=O)NCCN(C)C | 143 to 145 °C |
| NC(=O)CCCN(Cc1ccc(Cl)cc1)Cc1ccc(Cl)cc1 | 66 to 76 °C |
| CCONC(=O)c1cc(NCC2CCN(Cc3ccccc3)CC2)ccn1 | 125 to 130 °C |
| Cn1ncc2c(=O)n3c(nc21)SC(C(=O)O)C3 (configuration not stated) | 274 to 276 °C |
| Cc1cccc(CN2CCC(c3cc(-c4ccc(Cl)cc4)[nH]n3)CC2)c1 | 119 to 120 °C |
| Cc1cccc(NC(=O)NC2N=C(c3ccccc3F)c3ccccc3N(CCC3OCCO3)C2=O)c1 (racemic) | 214 to 215 °C |
| ON=C1CCC(c2ccccc2F)c2ccccc21 (configuration not stated) | 120 °C |
| Cn1cnnc1COc1nn2c(-c3ccccc3)nnc2cc1-c1ccccc1 | 230 to 235 °C |
| CC(=O)c1cn(Cc2ccc(F)cc2)c2ccccc2c1=O | 185 to 187 °C |
| CCCn1c(CCOC)nc2c(N)nc3cc(OCCCNC(=O)OC(C)(C)C)ccc3c21 | 134 to 135 °C |
| Nc1c(Cl)cc(-c2nn(C3CCN(Cc4ccc(C(F)(F)F)cc4)CC3)c(=O)o2)c2c1OCCO2 | 198 °C |
| CCn1nc(C(C)C)c2c1C(=O)NCC(c1ccccc1)=N2 | 160 °C |
| CN(C)Cc1cc(CSCCNc2ncc([N+](=O)[O-])c(=O)[nH]2)cs1 | 150 to 153 °C |
| CNC1(CC2CCCCC2)C(=O)Nc2ccc(Cl)cc21 (configuration not stated) | 168 to 169 °C |
| CCOC(=O)C1Cc2sc(N)c(C(=O)c3ccccc3Cl)c2C1 (configuration not stated) | 121 to 122 °C |
| Cc1c(Sc2ccc(Cl)cc2)c2cc(NS(C)(=O)=O)ccc2n1CC(=O)O | 214 °C |
| CCCCCCCC(O)C(O)Cc1cc(C(N)=O)ccc1C(N)=O (configuration not stated) | 118 °C |
| COc1cc(C(=O)O)ccc1Cn1cc(/C=C/C(=O)N(C)C)c2ccc(/C=C/C(=O)N(C)C)cc21 | 270 to 272 °C |
| N#Cc1ccccc1-c1ccc2[nH]c(Cc3ccccc3)nc2c1 | 133 to 140 °C |
| CCOC(=O)C(=O)c1csc(NC(=O)Nc2c(C)cccc2C)n1 | 172 to 174 °C |
| C=CCOc1cc(CC(C#N)=CNc2ccccc2)cc(OCC=C)c1NC(C)=O | 176 to 178 °C |
| Cn1c(C(F)(F)F)c(Cl)c(=O)n(-c2ccc(Cl)c3nc(C(C)(C)C)oc23)c1=O | 83 to 86 °C |
| CCCCCCC1c2sccc2CCN1CCNC(=O)c1ccc(NS(C)(=O)=O)cc1 (configuration not stated) | 132 to 134 °C |
